# Experimental data taken from patent publication US8222293B2, “Treating learning deficits with inhibitors of Hmg CoA reductase” (Regents of the University of Carolina, priority 2004, dated 2012).
# Legend:
# [1] = test system: nf1+/− mice; test: Lateralized reaction time task (attention); assay type: in vivo, mouse; details: 10 mg/kg oral pellets daily, target stimulus duration 0.5 sec
# Description: Mice were fed 1.5 gm of chow every day in their home cages (1 hr after experiment). […] Mice were trained in miniaturized versions of a “5-choice” box (Med Associates Inc., St Albans Vt.) that was equipped with a curved wall with horizontal array five apertures that could be internally illuminated. The opposite wall was fitted with a food receptacle where pellets were delivered as reinforcers. The animals were shaped to produce a “poke and hold” response in the central aperture. A correct response was scored when the animals correctly poked a side aperture that had been indicated during the poke and hold response. […] When animals performed at 75% accuracy at 1 second target stimulus duration they entered the test phase. Mice were tested on a variable duration condition in which the target aperture was illuminated for 0.5, 1.0 or 2.0 sec (varied from trial to trial within the session). Correct responses/total trials were measured, which vary as a function of the target stimulus duration and was therefore analyzed with repeated measures analysis of variance (the repeated measure being stimulus duration).
# Besides spatial impairments, NF-1 patients also show attention deficits. […] For this purpose, a lateralized reaction-time task, a test that measures divided visuo-spatial attention, was used. […]
# [2] = test system: nf1+/− mice; test: Water maze test (spatial learning); assay type: in vivo, mouse
# Description: The basic protocol for the water maze experiments has been previously described. Mice from the 129T2/SvEmsJ-C57B/6N F1 genetic background were given two trials per day (30-s inter-trial intervals) with a probe trial (60 s) at the end of training day 5 and 7.
# Spatial problems are among the most common cognitive deficits in individuals affected with NF1. […] Mice were trained with two trials per day.
# In the probe trials the platform was removed from the pool and the mice were allowed to search for it for 60 seconds.
# [3] = test system: phosphorylated p44/42 MAPK; test: Western blot for p44/42 MAP kinase phosphorylation in hippocampal extracts of treated mice
# [4] = test system: nf1+/− mice; test: Prepulse inhibition; assay type: in vivo, mouse
# Description: Following an acclimation period of 5 min, mice were presented with a total of 20 noise bursts (40 ms duration, 120 dB, <1 ms rise/fall time). In the prepulse inhibition phase, mice were presented with a total of 90 trials. Three prepulse intensities were tested: 70, 75 and 80 dB. Prepulses were 20 ms in duration with a rise/fall time of less than 1 ms. For each prepulse intensity, there were three types of trial: prepulse alone, prepulse/startle stimulus and startle stimulus alone. In the prepulse/startle stimulus trial, the onset of the prepulse preceded the onset of the startle stimulus by 100 ms. Background noise levels were maintained at 68 dB throughout testing, and the trials were spaced […].
# This task assays sensory “gating” of environmental stimuli. A powerful and sudden acoustic stimulus will elicit a whole body startle response. When the startle producing stimulus is preceded by a weak pre-stimulus (by approximately 100 milliseconds) the startle response is inhibited in normal persons and animals. Previous studies show a high incidence of ADHD in NF1 and support an association between ADHD and learning problems in these children.
# [5] = test system: p21Ras-GTP; test: p21Ras activity assay (GST-Raf1-RBD pull-down) in hippocampal extracts of treated mice
# [6] = test system: hippocampal slices of nf1+/− mice; test: Hippocampal LTP at the Schaffer collateral/CA1 synapse in slices from treated mice; assay type: in vivo, mouse; details: 10 mg/kg s.c. once per day for 4 days
smiles,measurement,setting,value
CC[C@H](C)C(=O)O[C@H]1C[C@@H](C)C=C2C=C[C@H](C)[C@H](CC[C@@H]3C[C@@H](O)CC(=O)O3)[C@H]21 [lovastatin],"correct response rate, versus nf1+/− given placebo",[1]; PLSD P<0.05,significantly higher
same,"correct response rate, versus WT mice",[1]; PLSD P=0.148,indistinguishable from that of WT mice
same,"proximity to exact platform position versus opposite position, probe trial","[2]; WT mice on lovastatin, t19=2.159, P<0.05",searched closer to the exact platform position than to the opposite position in the pool
same,cognitive function in control mice,[2]; dose effective in nf1+/− mice (10 mg/kg),did not affect cognitive function in control mice
same,"proximity to exact platform position versus opposite position, probe trial","[2]; nf1+/− mice on lovastatin, t20=2.170, P<0.05",searched closer to the exact platform position than to the opposite position in the pool
same,"time spent in training quadrant, day 7 probe trial, versus WT","[2]; nf1+/− mice, 10 mg/kg s.c. 3 days before training then 6 hours before training daily, P=0.862",spent as much time as WTs in the training quadrant
same,"time spent in training quadrant, day 7 probe trial, versus mutants given placebo","[2]; nf1+/− mice, 10 mg/kg s.c., P<0.05",significantly more time than mutants given placebo
same,amount of phosphorylated p44/42 MAPK (the active form) in hippocampus,"[3]; WT mice, 0-50 mg/kg s.c. once per day for 4 days, 6 hours after final injection",decreased the amount of phosphorylated p44/42 MAPK (the active form) in a dose-dependent fashion
same,levels of phosphorylated p44/42 MAPK in hippocampus,"[3]; nf1+/− mice, 10 mg/kg s.c. once per day for 4 days",decreased the levels of phosphorylated p44/42 MAPK
same,"PPI performance, main effect of treatment","[4]; 10 mg/kg oral pellets daily, F1,30=6.61, P<0.05",resulted in an increase in performance
same,"PPI performance, versus WT animals on placebo","[4]; nf1+/− animals on lovastatin, PLSD P=0.877",indistinguishable from that of WT animals on placebo
same,hippocampal levels of p21Ras-GTP,[5]; WT as printed in b156 (FIG. 1c),decreased the hippocampal levels of p21Ras-GTP in WT
same,active p21Ras (p21Ras-GTP),"[5]; nf1+/− mice, FIG. 1c legend",decreased active p21Ras (p21Ras-GTP)
same,LTP deficits of nf1+/− mice,[6],completely reversed the LTP deficits
same,"amount of LTP induced, versus WT","[6]; nf1+/− mice, PLSD P=0.602",equivalent to that of WTs
same,"amount of LTP induced, versus untreated nf1+/− mutants","[6]; nf1+/− mice, five theta-burst stimulation, PLSD P<0.05",significantly higher than that induced in mutants
